Assay results from patent US20240142457A1, “USE OF CASD1 AS A BIOMARKER OF A CANCER EXPRESSING THE O-ACETYLATED-GD2 GANGLIOSIDE” (OGD2 PHARMA, priority 2021, published 2024).

Key:
[1] = system: OAcGD2 expression in MDA-MB-231 GD3S+ cells; experiment: siRNA screen, OAcGD2 immunofluorescence (8B6 mAb) with automated imaging; format: cell-based, human; settings: fixed cells treated with NaOH 0.1M before primary antibody staining, compared to siNT transfected wells
Experimental: 2.5 μL/well of 500 nM siGenome siRNA (Dharmacon/Horizon) was printed into blackwalled 384 well cell carrier ultra plates (Perkin Elmer) with Velocity 11 (Agilent) as described before (Chia et al., 2012, Mol. Syst. Biol., 8: 629.). Reverse siRNA transfection was performed by pre-mixing 0.1 μL of Dharmafect 1 transfection reagent (#T-2001-03, Horizon) with 7.4 μL of Optimem for 5 minutes. Addition of mixture to the siRNA plate was then performed with small multidrop combi cassette (Thermo-Fisher) and was left for complexation for 20 minutes with shaking. Addition of 2750 cells in 40 μL of DMEM supplemented with 10% FCS per well was then performed with multidrop combi standard cassette at medium speed (Thermo-Fisher). siRNA targeting-GD2S (L-011279-00-0020, Horizon), Polo like kinase 1 (PLK1; L-003290-00-0020, Horizon) and […] (D-001810-10-20, Horizon) were used as screen controls.
After 72 h of incubation, transfected cells were fixed with 50 μL per well of 4% paraformaldehyde in 2% sucrose and 0.1M sodium phosphate buffer, […] at 37° C. […]
An OAcGD2 expression metric was derived with total cell thresholded fluorescence intensity obtained by immunodetection with 8B6 mAb in MDA-MB-231 GD3S+cells and was normalized with Hoeschst nuclei counts. […]

MDA-MB-231 GD3S+ cells = experiment: Transwell migration assay; format: cell-based, human; settings: 1 μM NVP231, 24 hours, vs untreated
Experimental: (§1) Transfections were performed with 10 μM of siRNA control non-targeting (D001810-10-20, Horizon), siRNA targeting CASD1 (L-016926-01-0010, Horizon), or two different siRNA targeting CERK: CERK2 (D-004061-02-0010, Horizon), or CERK4 ([…], Horizon) and 4 μL of RNAimax (#137781, Thermo fischer Scientific) in 500 μL of UltraMEM (Lonza). In 6-well plates, 150,000 cells were grown in 1,5 mL of DMEM and transfection mix. Cells were collected 72 hours after transfection for qPCR or immunocytochemistry experiments.
Cells were seeded in 12-well plates containing migration chamber in serum-free medium. Below the chamber, medium with serum was added into the wells in the presence or absence of 1 μM of NVP231. After 24 hours incubation at 37° C., wells were fixed with 4% paraformaldehyde and non-migratory cells were swapped with cotton swabs. Cells were washed three times and nuclei were stained with DAPI. Membranes were cut out and mounted between glass slide and coverslip with fluorescent mounting medium. Nuclei were counted using A1 Nikon confocal microscopy.

[2] = system: OAcGD2 expression in MDA-MB-231 GD3S+ cells; experiment: OAcGD2 immunocytochemistry and confocal microscopy after CERK inhibitor or siRNA; format: cell-based, human; settings: 1 μM NVP231, 2, 4, 6, 8, 20, 24 or 48 hours; increase from 2 to 8 hours, decrease after 8 hours
Experimental: as §1
Cells were seeded in 6-well plates (150,000 cells/well) with coverslips in 2 mL of DMEM medium. After 24 hours, the medium was replaced with DMEM containing 1 μM of the CERK inhibitor NVP231 (SigmaN9289). After 2 h, 4 h, 6 h, 8 h, 20 h, 24 h or 48 h of CERK inhibitor treatment, cells were collected for immunocytochemistry experiments.
Transfected cells were grown on glass coverslips and were fixed for 20 min in 4% paraformaldehyde. Cells were washed three times with PBS 1X and membrane permeabilization was performed in 5 μg/mL digitonine in PBS 1X for 20 min. After 3 washes, cells were saturated in PBS 1X-BSA 0.5% blocking buffer. […] The green fluorescence was acquired with λex=488 nm and λem=500-530 nm, DAPI with λex=350 nm and λem=460 nm. […] Mean fluorescence intensity was calculated with macro using ImageJ.

[3] = attributed to GD2 expression in healthy peripheral nerve fibers; cited from earlier work

[Na+].[OH-] [NaOH, Sodium hydroxide]
OAcGD2 staining [1]: abolished

O=C(Nc1nc2ccc(NC(=O)C34CC5CC(CC(C5)C3)C4)cc2s1)c1ccccc1 [CERK inhibitor, NVP231]
migration capacity of the cells (MDA-MB-231 GD3S+ cells): no effect | OAcGD2 expression (mean fluorescence intensity) [2]: transitory overexpression

B1: Dinutuximab: anti-GD2 monoclonal antibody approved for pediatric high-risk neuroblastoma (antibody, chains of the INN, looked up, V domains shown)
VH: EVQLLQSGPELEKPGASVMISCKASGSSFTGYNMNWVRQNIGKSLEWIGAIDPYYGGTSYNQKFKGRATLTVDKSSSTAYMHLKSLTSEDSAVYYCVSGMEYWGQGTSVTVSS
VL: EIVMTQSPATLSVSPGERATLSCRSSQSLVHRNGNTYLHWYLQKPGQSPKLLIHKVSNRFSGVPDRFSGSGSGTDFTLKISRVEAEDLGVYFCSQSTHVPPLTFGAGTKLELK
side effects [3]: severe side effects
